Experimental data published in patent US6914045B2, “Glycopeptide antibiotics” (Wyeth Holdings Corporation, priority 2001, dated 2005).
Converted amounts (≈) assume the structure as drawn.

How the values were obtained:
Enterococcus sp. = assay: in vitro antibacterial evaluation, MIC by broth dilution; type: cell-based; conditions: broth dilution, 18 hours at 35° C.
Procedure, shortened: (§1)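 Broth dilution per NCCLS standard M7-A2 in Muller-Hinton II […], with an inoculum of 5×10^5 CFU/mL and antibiotic spanning 64-0.06 μg/mL. The MIC is the lowest concentration that inhibits growth of the organism.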

Staphylococcus sp. = assay: as above; type: cell-based; conditions: broth dilution, 18 hours at 35° C.
Procedure, shortened: as §1

Streptococcus sp. = assay: as above; type: cell-based; conditions: broth dilution, 18 hours at 35° C.
Procedure, shortened: as §1

[1] = anatomic pathology (histopathology of heart and kidney) in mice; type: in vivo; conditions: CD-1 mice, 20 mg/kg intravenously daily for 9 days, necropsy day 10, microscopic histopathology
Description: Samples of tissues from necropsied mice were formalin-fixed, paraffin-embedded, sectioned, stained with hematoxylin and eosin, and examined microscopically. Histopathologic findings were recorded. These findings were subjectively graded on a scale corresponding to slight, mild, moderate, marked and severe as compared to untreated controls.

Escherichia coli = assay: in vitro antibacterial evaluation, MIC by broth dilution; type: cell-based; conditions: 18 hours at 35° C.
Procedure, shortened: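 Broth dilution in Muller-Hinton II medium per NCCLS standard M7-A2, with an inoculum of 5×10^5 CFU/mL and antibiotic tested over 64-0.06 μg/mL. MIC was taken as the lowest concentration inhibiting visible growth.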

MIC Enterococcus avium (GC 4558) (Enterococcus sp.; Enterococcus avium (GC 4558)): 128 µg/mL (≈ 87.6 µM)
MIC Enterococcus faecalis (ATCC 29212) (Enterococcus sp.; Enterococcus faecalis (ATCC 29212)): >128 µg/mL
MIC Enterococcus faecalis (GC 4552) (Enterococcus sp.; Enterococcus faecalis (GC 4552)): >128 µg/mL
MIC Enterococcus faecalis (GC 4553) (Enterococcus sp.; Enterococcus faecalis (GC 4553)): >128 µg/mL
MIC Enterococcus faecalis (GC 4554) (Enterococcus sp.; Enterococcus faecalis (GC 4554)): >128 µg/mL
MIC Enterococcus faecalis (GC 6189) (Enterococcus sp.; Enterococcus faecalis (GC 6189)): >128 µg/mL
MIC Enterococcus faecium (GC 2243) (Enterococcus sp.; Enterococcus faecium (GC 2243)): >128 µg/mL
MIC Enterococcus faecium (GC 4556) (Enterococcus sp.; Enterococcus faecium (GC 4556)): >128 µg/mL
MIC Enterococcus faecium (GC 4557) (Enterococcus sp.; Enterococcus faecium (GC 4557)): >128 µg/mL
MIC Enterococcus avium (GC 4558) (Enterococcus sp.): 128 µg/mL (≈ 87.6 µM)
MIC Enterococcus faecalis (ATCC 29212) (Enterococcus sp.): >128 µg/mL
MIC Enterococcus faecalis (GC 2242) (Enterococcus sp.): >128 µg/mL
MIC Enterococcus faecalis (GC 2691) (Enterococcus sp.): >128 µg/mL
MIC Enterococcus faecalis (GC 3059) (Enterococcus sp.): >128 µg/mL
MIC Enterococcus faecalis (GC 4552) (Enterococcus sp.): >128 µg/mL
MIC Enterococcus faecalis (GC 4553) (Enterococcus sp.): >128 µg/mL
MIC Enterococcus faecalis (GC 4554) (Enterococcus sp.): >128 µg/mL
MIC Enterococcus faecalis (GC 6189) (Enterococcus sp.): >128 µg/mL
MIC Enterococcus faecium (GC 2243) (Enterococcus sp.): >128 µg/mL
MIC Enterococcus faecium (GC 4556) (Enterococcus sp.): >128 µg/mL
MIC Enterococcus faecium (GC 4557) (Enterococcus sp.): >128 µg/mL
MIC Enterococcus faecalis (GC 2242) (Enterococcus sp.; strain GC 2242): >128 µg/mL
MIC Enterococcus faecalis (GC 2691) (Enterococcus sp.; strain GC 2691): >128 µg/mL
MIC Enterococcus faecalis (GC 3059) (Enterococcus sp.; strain GC 3059): >128 µg/mL
MIC Staphylococcus aureus (ATCC 29213) (Staphylococcus sp.; strain ATCC 29213): >128 µg/mL
MIC Staphylococcus aureus (GC 1131) (Staphylococcus sp.; strain GC 1131): >128 µg/mL
MIC Staphylococcus aureus (GC 3051) (Staphylococcus sp.; strain GC 3051): >128 µg/mL
MIC Staphylococcus aureus (GC 3053) (Staphylococcus sp.; strain GC 3053): >128 µg/mL
MIC Staphylococcus aureus (GC 4541) (Staphylococcus sp.; strain GC 4541): >128 µg/mL
MIC Staphylococcus aureus (GC 4542) (Staphylococcus sp.; strain GC 4542): >128 µg/mL
MIC Staphylococcus aureus-SMITH (GC 4543) (Staphylococcus sp.; strain GC 4543): >128 µg/mL
MIC Staphylococcus aureus (GC 4544) (Staphylococcus sp.; strain GC 4544): >128 µg/mL
MIC Staphylococcus aureus (GC 4545) (Staphylococcus sp.; strain GC 4545): >128 µg/mL
MIC Coagulase Negative Staphylococcus (GC 4547) (Staphylococcus sp.; strain GC 4547): >128 µg/mL
MIC Coagulase Negative Staphylococcus (GC 4548) (Staphylococcus sp.; strain GC 4548): >128 µg/mL
MIC Coagulase Negative Staphylococcus (GC 4549) (Staphylococcus sp.; strain GC 4549): >128 µg/mL
MIC Coagulase Negative Staphylococcus (GC 4551) (Staphylococcus sp.; strain GC 4551): >128 µg/mL
MIC Streptococcus agalactiae (GC 4564) (Streptococcus sp.): >128 µg/mL
MIC Streptococcus pneumoniae (ATCC 6301) (Streptococcus sp.): >128 µg/mL
MIC Streptococcus pneumoniae (GC 1894) (Streptococcus sp.): >128 µg/mL
MIC Streptococcus pneumoniae (GC 4565) (Streptococcus sp.): >128 µg/mL
MIC Streptococcus pyogenes (GC 4563) (Streptococcus sp.): >128 µg/mL
MIC Streptococcus pneumoniae (ATCC 6301) (Streptococcus sp.; strain ATCC 6301): >128 µg/mL
MIC Streptococcus pneumoniae (GC 1894) (Streptococcus sp.; strain GC 1894): >128 µg/mL
MIC Streptococcus pyogenes (GC 4563) (Streptococcus sp.; strain GC 4563): >128 µg/mL
MIC Streptococcus agalactiae (GC 4564) (Streptococcus sp.; strain GC 4564): >128 µg/mL
MIC Streptococcus pneumoniae (GC 4565) (Streptococcus sp.; strain GC 4565): >128 µg/mL
MIC Escherichia coli (ATCC 25922) (Escherichia coli): >128 µg/mL
MIC Escherichia coli (GC 4559) (Escherichia coli): >128 µg/mL
MIC Escherichia coli (GC 4560) (Escherichia coli): 8 µg/mL (≈ 5.47 µM)
SMILES: CC(c1ccccc1)C1NC(=O)CNC(=O)C(CO)NC(=O)C(C(O)C2CN(Cc3ccc(-c4ccccc4)cc3)C(=N)N2C2OC(CO)C(O)C(O)C2O)NC(=O)C(C(O)C2CNC(=N)N2)NC(=O)C(Cc2ccc(OC3OC(CO)C(OC4OC(CO)C(O)C(O)C4O)C(O)C3O)cc2)NC1=O (centres unmarked) [Example 66a]
MIC Staphylococcus haemolyticus (GC 4546) (Staphylococcus sp.; strain GC 4546): >128 µg/mL
Anatomical Pathology (Day 10), Heart [1]: 0
Anatomical Pathology (Day 10), Kidney [1]: ++
